Data from patent publication US20240366784A1, “INJECTABLE HYDROGEL COMPOSITIONS AND METHODS OF USE THEREOF” (Drexel University, priority 2023, published 2024).

Tests used:
[1] = typically reported; cited from earlier work
RAW264.7 cells = assay: qPCR transcriptional analysis of zymosan-activated RAW264.7 macrophages; type: cell-based, murine; conditions: zymosan 100 μg/mL, drug 1 μM, 24 hrs
Description: For secondary identification of M2-promoting drugs, transcriptional analysis using qPCR was performed. RAW264.7 cells were plated at 1×10^6 cells/well in 24 well plates. After 24 h, media was replaced, and IL-4 (10 ng/mL, PeproTech) or zymosan (100 μg/mL) were included to serve as internal controls for M2-like and M1-like phenotypes, respectively. Treatment groups were concurrently activated via zymosan and treated with 1 μM drug concentrations, n=3 per group. After 24 hrs, cells were lysed by freezing, RNA was extracted (RNEasy Mini Kit; Qiagen), and cDNA synthesis was performed (High-Capacity cDNA Reverse Transcription Kit; Fisher). Samples were subject to qPCR using Taqman Fast Advanced Master Mix and probes (Fisher) for analysis of hprt (Mm01545399_m1), nos2 (Mm00440502_m1), il12b (Mm01288989_m1), il6 (Mm00446190_m1), mrc1 (Mm00485148_m1), il10 (Mm01288386_m1), and arg1 (Mm00475988_m1). Data is expressed as a fold change in gene expression using the ΔΔCt method, relative to the hprt and zymosan-treated controls.

[2] = test system: Bone marrow derived macrophages (BMDMs); assay: nanoString gene expression analysis in zymosan-activated bone marrow derived macrophages; type: cell-based, mouse; conditions: zymosan 100 μg/mL, drug 1 μM, 24 hrs, 91-gene panel
Description: Cells were maintained under standard culture conditions (37° C., 5% CO2) in the indicated medium which was replenished every two days. The murine MF cell lines, RAW 264.7 (ATCC) and RAW-Blue™ (InvivoGen), were cultured in Dulbecco's Modified Eagle Medium (DMEM) supplemented with heat-inactivated fetal bovine serum (FBS), and 1% penicillin-streptomycin (Pen-Strep). RAW-Blue™ media was additionally supplemented by 100 μg/ml Normocin with the addition of 100 μg/ml of Zeocin every other passage to maintain selection pressure, as recommended by the manufacturer. Cells were passaged at 70% confluency. Primary MF were derived from murine and human tissues. Bone marrow derived macrophages (BMDMs) were isolated and derived according to standard protocols. Marrow was extracted from the surgically resected femur and tibia of male C57BL/6 mice, dissociated, and filtered using a 40 μm strainer. Red blood cells were lysed with ammonium chloride, and recovered cells were plated at 2×10^6 cells/well in 24 well plates and maintained in Iscove's Modification of DMEM (IMDM) supplemented with 10% heat-inactivated FBS, 1% Pen-Strep, and 10 ng/mL recombinant mouse macrophage colony-stimulating factor (M-CSF; PeproTech). Primary human monocytes were isolated from peripheral blood (New York Blood Center) from a single healthy human donor via density centrifugation as previously described in the literature. […]

| SMILES | Keq of polyaromatic guests with CD [1] | change in il12b expression among six selected drugs (RAW264.7 cells) | change in mrc1 and il10 expression among six selected drugs (RAW264.7 cells) | expression of M1-like genes (nos2, il6, il12b) (RAW264.7 cells; qPCR) | expression of M2-like genes (mrc1, arg1, il10) (RAW264.7 cells; qPCR) | cluster analysis of macrophage phenotype [2] |
| --- | --- | --- | --- | --- | --- | --- |
| COc1cccc2c1C(=O)c1c(O)c3c(c(O)c1C2=O)C[C@@](O)(C(=O)CO)C[C@@H]3O[C@H]1C[C@H](N)[C@H](O)[C@H](C)O1 [doxorubicin] | single micromolar |  |  |  |  |  |
| COc1ccc(C(=O)Nc2c(Cl)cncc2Cl)cc1OC1CCCC1 [piclamilast] |  | greatest decrease | greatest increase | significantly downregulated | upregulation | intermediate to M1 and M2 control phenotypes |
| N[C@@H](Cc1c[nH]c2ccccc12)C(=O)O [tryptophan] | single micromolar |  |  |  |  |  |
